One experiment concerns the target c-Kit kinase (Homo sapiens (Human), UniProt P10721). In words: c-Kit biochemical assay (AlphaScreen kinase activity). As to the method: Assays for biochemical cell-based activity of c-kit kinase are known in the art, for example, as described in U.S. Pat. Nos. 7,498,342 and 7,846,941, the disclosures of which are hereby incorporated by reference as it relates to such assays. The c-kit (or kinase domain thereof) is an active kinase in AlphaScreen. IC50 values are determined with respect to inhibition of c-Kit kinase activity, where inhibition of phosphorylation of a peptide substrate is measured as a function of compound concentration. Compounds to be tested were dissolved in DMSO to a concentration of 30 mM. These were diluted 30 μl into 130 μl of DMSO (4 mM) and 1 μl was added to an assay plate. These were then serially diluted 1:3 (50 μl to 100 μl DMSO) for a total of 8 points. Plates were prepared such that each kinase reaction is 30 μl in 1× kinase buffer (50 mM HEPES, pH 7.2, 5 mM MgCl2, 5 mM MnCl2, 0.01% NP-40, 0.2% BSA), 5% DMSO and 10 μM ATP. Substrate was 100 nM biotin-(E4Y)3 (Open Source Biotech, Inc.). C-kit kinase was at 0.1 ng per sample. After incubation of the kinase reaction for 1 hour at room temperature, 5 μl of donor beads (Streptavidin coated beads (Perkin Elmer Life Science) final concentration 1 μg/ml) in stop buffer (50 mM EDTA in 1× kinase buffer) was added, the sample was mixed and incubated for 30 minutes at room temperature before adding […] of acceptor beads (PY30 coated beads (Perkin Elmer Life Science) final concentration 1 μg/ml) in stop buffer. The samples were incubated for 60 minutes at room temperature and the signal per well was read on AlphaQuest reader. Phosphorylated substrate results in binding of the PY30 antibody and association of the donor and acceptor beads such that signal correlates with kinase activity. The signal vs. compound concentration was used to determine the IC50.
Compounds were also tested using a similar assay with a 10-fold higher ATP concentration. For these samples, compounds to be tested were dissolved in DMSO to a concentration of 30 mM. These were diluted 30 μl into 130 μl of DMSO (4 mM) and 1 μl was added to an assay plate. These were then serially diluted 1:3 (50 μl to 100 μl DMSO) for a total of 8 points. Plates were prepared such that each kinase reaction is 30 μl in 1× kinase buffer (25 mM HEPES, pH 7.5, 2 mM MgCl2, 2 mM MnCl2, 0.01% […], 1 mM DTT, and 0.001% BSA), 5% DMSO and 100 μM ATP. Substrate was 30 nM biotin-(E4Y)10 (Upstate Biotech, Cat#12-440). C-kit kinase was at 1 ng per sample. After incubation of the kinase reaction for 1 hour at room temperature, 5 μl of donor beads (Streptavidin coated beads (Perkin Elmer Life Science) final concentration 10 μg/ml) in stop buffer (25 mM HEPES pH 7.5, 100 mM EDTA, 0.3% BSA) was added, the sample was mixed and incubated for 30 minutes at room temperature before adding 5 μl of acceptor beads (PY30 coated beads (Perkin Elmer Life Science) final concentration 10 μg/ml) in stop buffer. The samples were incubated for 60 minutes at room temperature and the signal per well was read on AlphaQuest or Envision reader (Perkin Elmer Life Science). Phosphorylated substrate results in binding of the PY30 antibody and association of the donor and acceptor beads such that signal correlates with kinase activity. The signal vs. compound concentration was used to determine the IC50.
The c-kit enzyme used in the above assay was either obtained from Cell Signaling Technology (Cat. #7754) or was prepared as follows: A plasmid encoding kit (DNA and encoded protein sequences shown below) was engineered using common polymerase chain reaction (PCR) methods. Complementary DNA cloned from various human tissues were purchased from Invitrogen, and these were used as substrates in the PCR reactions. Specific custom synthetic oligonucleotide primers were designed to initiate the PCR product, and also to provide the appropriate restriction enzyme cleavage sites for ligation with the plasmids. […]
In general terms: Alpha assays give light when donor and acceptor beads are brought close together.

The subject of experiment [1] is BaF3-FL KIT D816V or BaF3-FL KIT V560G/D816V cell line. As to the kind of experiment: Cell-based assays of c-Kit mutant kinase activity (cell proliferation, ATPlite). The following applies: at least one of the c-kit cell assays of Example 7. Here is the method:
The c-Kit mutant D816V inhibitors were assessed using an engineered BaF3-FL KIT D816V or BaF3-FL KIT V560G/D816V cell line. The BaF3-FL KIT D816V cell lines were created by introduction of KIT mutant (D816V) full length constructs that render the cells dependent on the introduced kinase for growth. Inhibitors of c-Kit mutant D816V kinase reduce or eliminate the mediated c-kit mutant D816V kinase activation, resulting in reduced cell proliferation of the BaF3-FL Kit mutant D816V cells. This inhibition is measured by the effect of compound concentration on cell growth to assess IC50 values. BaF3-FL KIT D816V cells were seeded at 1×10^4 cells per well of a 96 well cell culture plate in 50 μl of cell culture medium of RPMI Medium 1× (Invitrogen #11875-093) supplemented with 10% FBS (Invitrogen #10438), 1% Non Essential Amino Acids (Invitrogen #11140), 1% Penicillin Streptomycin (Invitrogen #15140), 1% L-Glutamine (Invitrogen #25030-081). Compounds were dissolved in DMSO at a concentration of 5 mM and were serially diluted 1:3 for a total of eight points and added to the cells to a final maximum concentration of 10 μM in 100 μl cell culture medium (final concentration 0.2% DMSO). Cells were also treated with Dasatinib as a positive control. The cells were incubated at 37° C., 5% CO2 for three days. ATPlite Buffer (Perkin Elmer #6016739) and substrate were equilibrated to room temperature, and enzyme/substrate Recombinant Firefly Luciferase/D-Luciferin was reconstituted. The cell plates were equilibrated to room temperature for 30 minutes, then lysed by addition of 25 μL per well of the ATPlite Reagent. The plate was mixed for 5 minutes on a plate shaker to lyse the cells. The plates were read on a Tecan Safire using Luminescence protocol modified to read 0.1s per well. The luminescence reading assesses the ATP content, which correlates directly with cell number such that the reading as a function of compound concentration is used to determine the IC50 value.
Plasmids P75635 and P75565 were engineered for mammalian cell expression. In both plasmids, full-length human v-kit Hardy-Zuckerman 4 feline sarcoma viral oncogene homolog gene (NCBI accession NM_000222, KIT, residues M1-V976) was subcloned into the pCI-Neo vector (Promega E1841). Plasmid P75635 contains the mutation of residue Aspartic acid 816 to Valine. Plasmid P75565 contains the double mutation of residues Valine 560 to Glycine and Aspartic acid 816 to Valine. The pCI-neo Mammalian Expression Vector carries the human cytomegalovirus (CMV) immediate-early enhancer/promoter region to promote constitutive expression of KIT and contains the neomycin phosphotransferase gene, a selectable marker.
It is understood that the results of these assays may vary as assay conditions are varied. Inhibition levels determined under the conditions described herein represent a relative activity for the compounds tested under the specific conditions employed. The cell based assays are likely to show variability due to the complexity of the system and the sensitivity thereof to any changes in the assay conditions. […] In some instances, the compounds were not tested in all of the assays, or assay results were not valid.
Background: ATP-based viability assays read luminescence as a measure of living cells.

The values below come from patent US9771369B2, “Compounds and methods for kinase modulation, and indications therefor” (Plexxikon Inc., priority 2014, dated 2017).

The structures appear in SMILES notation.

c-Kit kinase, sequence (P10721 26-976): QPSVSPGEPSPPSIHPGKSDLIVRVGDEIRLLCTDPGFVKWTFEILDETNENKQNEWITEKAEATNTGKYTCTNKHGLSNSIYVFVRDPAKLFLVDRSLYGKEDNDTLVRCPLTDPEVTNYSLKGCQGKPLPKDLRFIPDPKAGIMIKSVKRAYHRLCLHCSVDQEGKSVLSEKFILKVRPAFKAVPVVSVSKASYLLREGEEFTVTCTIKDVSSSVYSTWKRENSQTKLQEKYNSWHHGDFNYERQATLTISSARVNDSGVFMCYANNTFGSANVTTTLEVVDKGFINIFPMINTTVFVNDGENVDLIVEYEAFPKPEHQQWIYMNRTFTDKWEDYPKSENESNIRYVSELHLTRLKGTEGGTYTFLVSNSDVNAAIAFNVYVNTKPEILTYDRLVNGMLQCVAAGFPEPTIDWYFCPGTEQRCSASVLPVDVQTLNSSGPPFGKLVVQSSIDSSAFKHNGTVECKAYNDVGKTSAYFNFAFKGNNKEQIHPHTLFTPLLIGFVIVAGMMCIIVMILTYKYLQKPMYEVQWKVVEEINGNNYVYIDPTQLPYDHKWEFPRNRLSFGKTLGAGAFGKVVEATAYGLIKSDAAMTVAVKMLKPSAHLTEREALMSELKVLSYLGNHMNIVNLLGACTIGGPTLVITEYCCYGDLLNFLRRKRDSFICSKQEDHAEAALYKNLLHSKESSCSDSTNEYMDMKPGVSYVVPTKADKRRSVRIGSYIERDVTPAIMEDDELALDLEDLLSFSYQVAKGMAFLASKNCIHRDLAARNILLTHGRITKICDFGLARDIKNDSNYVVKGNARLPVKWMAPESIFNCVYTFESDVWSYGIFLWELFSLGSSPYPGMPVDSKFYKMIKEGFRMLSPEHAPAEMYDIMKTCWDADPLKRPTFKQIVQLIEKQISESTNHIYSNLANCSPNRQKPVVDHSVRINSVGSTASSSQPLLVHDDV

Regarding `COc1cc(-c2cc3c(N4CCC(c5nc(C)c(-c6ccc(F)cc6)[nH]5)CC4)ncnc3[nH]2)ccn1` [P-3007, 4-[4-[5-(4-fluorophenyl)-4-methyl-1H-imidazol-2-yl]-1-piperidyl]-6-(2-methoxy-4-pyridyl)-7H-pyrrolo[2,3-d]pyrimidine], the results for the IC50 (against c-Kit kinase; in experiment [1]) were 1 to 10 µM and below 10 µM, respectively.
Take `COc1cc(-c2cc3c(N4CCC(c5nc(C6CC6)c(-c6ccccc6)[nH]5)CC4)ncnc3[nH]2)ccn1` [P-3008, 4-[4-(4-cyclopropyl-5-phenyl-1H-imidazol-2-yl)-1-piperidyl]-6-(2-methoxy-4-pyridyl)-7H-pyrrolo[2,3-d]pyrimidine]: the IC50 (commonly the concentration that inhibits the measured activity by half) on c-Kit kinase is 0.0001 to 1 µM; in experiment [1], below 10 µM.
For `Fc1ccc(-c2cc3c(N4CCC(c5nc(C6CC6)c(-c6ccccc6)[nH]5)CC4)ncnc3[nH]2)cc1` [P-3009, 4-[4-(4-cyclopropyl-5-phenyl-1H-imidazol-2-yl)-1-piperidyl]-6-(4-fluorophenyl)-7H-pyrrolo[2,3-d]pyrimidine], the results for the half-inhibitory concentration (IC50) (at c-Kit kinase; in experiment [1]) were 0.0001 to 1 µM and below 10 µM, respectively.
Taken in the same sequence, the figures for `N#Cc1ccc(-c2cc3c(N4CCC(c5nc(C6CC6)c(-c6ccccc6)[nH]5)CC4)ncnc3[nH]2)cc1` [P-3010, 4-[4-[4-(4-cyclopropyl-5-phenyl-1H-imidazol-2-yl)-1-piperidyl]-7H-pyrrolo[2,3-d]pyrimidin-6-yl]benzonitrile] were 0.0001 to 1 µM and below 10 µM.
`Cc1nc(C2CCN(c3ncnc4[nH]c(-c5ccc(F)cc5)cc34)CC2)[nH]c1-c1cccc(OC(F)(F)F)c1` [P-3011, 6-(4-fluorophenyl)-4-[4-[4-methyl-5-[3-(trifluoromethoxy)phenyl]-1H-imidazol-2-yl]-1-piperidyl]-7H-pyrrolo[2,3-d]pyrimidine]: the 50% inhibitory concentration (IC50) at c-Kit kinase is 1 to 10 µM; in experiment [1] it was below 10 µM.
Taken in the same sequence, the figures for `CCOc1cc(-c2[nH]c(C3CCN(c4ncnc5[nH]c(-c6ccc(C#N)cc6)cc45)CC3)nc2C)ccc1C` [P-3095, 4-[4-[4-[5-(3-ethoxy-4-methyl-phenyl)-4-methyl-1H-imidazol-2-yl]-1-piperidyl]-7H-pyrrolo[2,3-d]pyrimidin-6-yl]benzonitrile] were 0.0001 to 1 µM and below 10 µM.
Taken in the same sequence, the figures for `CCOc1cc(-c2[nH]c(C3CCN(c4ncnc5[nH]c(-c6ccnc(OC)c6)cc45)CC3)nc2C)ccc1C` [P-3096, 4-[4-[5-(3-ethoxy-4-methyl-phenyl)-4-methyl-1H-imidazol-2-yl]-1-piperidyl]-6-(2-methoxy-4-pyridyl)-7H-pyrrolo[2,3-d]pyrimidine] were 0.0001 to 1 µM and below 10 µM.
As to `Cc1nc(C2CCN(c3ncnc4[nH]c(-c5ccnc(C(F)(F)F)c5)cc34)CC2)[nH]c1-c1ccccc1` [P-3097, 4-[4-(4-methyl-5-phenyl-1H-imidazol-2-yl)-1-piperidyl]-6-[2-(trifluoromethyl)-4-pyridyl]-7H-pyrrolo[2,3-d]pyrimidine], the figures for the half-maximal inhibitory concentration (IC50) (on c-Kit kinase; in experiment [1]) were 1 to 10 µM and below 10 µM, respectively.
In the case of `Cc1nc(C2CCN(c3ncnc4[nH]c(-c5cccc(C(F)(F)F)c5)cc34)CC2)[nH]c1-c1ccccc1` [P-3098, 4-[4-(4-methyl-5-phenyl-1H-imidazol-2-yl)-1-piperidyl]-6-[3-(trifluoromethyl)phenyl]-7H-pyrrolo[2,3-d]pyrimidine], the half-maximal inhibitory concentration (IC50) against c-Kit kinase is 1 to 10 µM; in experiment [1], below 10 µM.
Taken in the same sequence, the figures for `CCOc1ccc(-c2[nH]c(C3(C)CCN(c4ncnc5[nH]c(C)cc45)CC3)nc2C)cc1C` [P-3099, 4-[4-[5-(4-ethoxy-3-methyl-phenyl)-4-methyl-1H-imidazol-2-yl]-4-methyl-1-piperidyl]-6-methyl-7H-pyrrolo[2,3-d]pyrimidine] were 0.0001 to 1 µM and below 10 µM.
Consider `CCc1ccc(-c2[nH]c(C3(C)CCN(c4ncnc5[nH]c(C)cc45)CC3)nc2C)cc1` [P-3101, 4-[4-[5-(4-ethylphenyl)-4-methyl-1H-imidazol-2-yl]-4-methyl-1-piperidyl]-6-methyl-7H-pyrrolo[2,3-d]pyrimidine], for which the results for the IC50 (on c-Kit kinase; in experiment [1]) were 0.0001 to 1 µM and below 10 µM, respectively.
